In ChEMBL document CHEMBL1135052, “7-Methoxyfuro[2,3-c]pyridine-4-carboxamides as PDE4 inhibitors: a potential treatment for asthma” (Bioorg Med Chem Lett, 2002):
The source made the active and inactive calls.

Tests used:
Phosphodiesterase 4 [1] = target: T1, Phosphodiesterase 4 (Homo sapiens, UniProt P27815+Q08499+Q07343+Q08493); experiment: (§1) Inhibition of human phosphodiesterase 4 from U937 cells; format: cell-based; settings: u-937
Phosphodiesterase 4 [2] = target: T1, Phosphodiesterase 4; experiment: as §1; format: cell-based; settings: U-937, concentration not given here
[3] = target: Phosphodiesterase 4 (Rattus norvegicus) (UniProt P14270+P14646+P14644+P54748); experiment: Inhibition of rolipram binding to rat brain at 1 uM; format: tissue-based
[4] = target: T2, Phosphodiesterase 3 (Homo sapiens) (UniProt Q14432+Q13370); experiment: Inhibition of human platelet phosphodiesterase 3 at 1 uM
[5] = target: T2, Phosphodiesterase 3 (Homo sapiens); experiment: Inhibition of human platelet Phosphodiesterase 3 at 20 uM
[6] = target: T2, Phosphodiesterase 3 (Homo sapiens); experiment: Inhibition of human platelet Phosphodiesterase 3 at 20 uM (inactive)
[7] = target: T2, Phosphodiesterase 3 (Homo sapiens); experiment: Inhibition of human platelet Phosphodiesterase 3 at 1 uM (inactive)
[8] = AUC tested in guinea pig when 3 mg/kg dose was given perorally; format: ADME, organism-based, Cavia porcellus, Plasma; parameters: dose 3 mg/kg, route oral; settings: in vivo, po
[9] = Maximum plsma drug concentration in guinea pig when 3 mg/kg dose was given perorally; format: ADME, organism-based, Cavia porcellus; parameters: dose 3 mg/kg, route oral; settings: plasma, po
[10] = Bioavailability in guinea pig was tested; format: ADME, organism-based, Cavia porcellus; settings: in vivo, read-out: Bioavailabiility

| SMILES | IC50 (Phosphodiesterase 4 [1]) [nM] | other results |
| --- | --- | --- |
| CCc1cc2c(C(=O)Nc3cc[n+]([O-])cc3C)cnc(OC)c2o1 | 120 | – |
| CCc1cc2c(C(=O)Nc3c(C)cc(C#N)cc3Cl)cnc(OC)c2o1 | 230 | – |
| CCc1cc2c(C(=O)Nc3c(Cl)c[n+]([O-])cc3Cl)cnc(O)c2o1 | – | inhibition (Phosphodiesterase 4 [2]): 22%; inhibition [3]: 61% |
| COc1ncc(C(=O)Nc2c(Cl)c[n+]([O-])cc2Cl)c2cc(-c3cccnc3)oc12 | 62 | – |
| CCc1cc2c(C(=O)Nc3cc[n+]([O-])cc3Cl)cnc(OC)c2o1 | 120 | inhibition [4]: 39% |
| CCc1cc2c(C(=O)Nc3c(Cl)c[n+]([O-])cc3Cl)cnc(OC(F)F)c2o1 | 3.7 | – |
| COc1ncc(C(=O)Nc2c(Cl)c[n+]([O-])cc2Cl)c2cc(C3CCOC3)oc12 (centres undefined) | 23 | – |
| COc1ncc(C(=O)Nc2c(Cl)c[n+]([O-])cc2Cl)c2cc(C3CCOCC3)oc12 | 47 | inhibition [5]: 3% |
| COCc1cc2c(C(=O)Nc3c(Cl)c[n+]([O-])cc3Cl)cnc(OC)c2o1 | 47 | inhibition [6]: inactive |
| CCc1cc2c(C(=O)Nc3c(F)cccc3F)cnc(OC)c2o1 | 66 | – |
| COc1ncc(C(=O)Nc2c(Cl)c[n+]([O-])cc2Cl)c2cc(C3(OC)CCN(C(=O)OC(C)(C)C)CC3)oc12 | 48 | inhibition [6]: inactive |
| CCc1cc2c(C(=O)Nc3ncncc3C#N)cnc(OC)c2o1 | 140 | inhibition [7]: inactive |
| CCc1cc2c(C(=O)Nc3c(Cl)c[n+]([O-])cc3Cl)cnc(OC)c2o1 | 14 | AUC [8]: 4942 ng/mL; Cmax [9]: 1410 ng/mL; bioavailability [10]: 54%; inhibition [5]: 32% |
| CCc1cc2c(C(=O)Nc3cc[n+]([O-])cc3OC)cnc(OC)c2o1 | – | inhibition (Phosphodiesterase 4 [2]): 21% |
